The record followed here is patent US7902254B1, “Method for treating conditions mediated by PPAR using macelignan” (Newtree Co., Ltd., priority 2005, dated 2011).

Assay [1] has as its target T1, human PPARγ (Homo sapiens, UniProt P37231).
T1 construct: expressed in transfected cells; host or cells: COS-7 monkey kidney cells (ATCC CRL-1651)
T1 sequence (P37231 176-477 isoform P37231-2): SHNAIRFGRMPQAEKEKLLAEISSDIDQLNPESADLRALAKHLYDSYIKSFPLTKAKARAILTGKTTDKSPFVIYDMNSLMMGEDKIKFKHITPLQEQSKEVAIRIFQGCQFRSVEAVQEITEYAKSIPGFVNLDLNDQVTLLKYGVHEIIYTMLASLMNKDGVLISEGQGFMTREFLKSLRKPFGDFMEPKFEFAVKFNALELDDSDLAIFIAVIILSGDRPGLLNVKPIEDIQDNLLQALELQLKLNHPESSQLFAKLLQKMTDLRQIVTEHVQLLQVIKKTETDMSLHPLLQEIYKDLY
The assay can be described thus: PPARγ activation, luciferase reporter in transfected COS-7 cells. The format is cell-based. The settings on record: 24 hours. How it is done:
Then, the polynucleotide was cloned between the restriction enzyme sites of BamHI and KpnI of pFA vector (Stratagene, USA). […] RT-PCR was performed by synthesizing cDNA using reverse transcriptase at 42° C. for 60 minutes, and 30 cycles of 1 minute at 95° C., 30 seconds at 54° C. and 2 minutes at 72° C. using Taq polymerase. […] Then, the polynucleotide was cloned between the restriction enzyme sites of XbaI and KpnI of pFA vector (Stratagene, USA).

Assay [2] deals with target genes of PPARγ (CD36, LPL, ACS, GyK). The experiment in a line: Expression of target genes of PPARγ in liver tissue of obesity/diabetes mouse model. The format is in vivo. The settings on record: 5, 10 and 25 mg/kg oral, 14 days, db/db mice, p<0.05 vs control. Here is the method:
Liver tissue was removed from the test groups and the controls treated by oral administration in Examples 5˜8. The liver tissue was homogenized in liquid nitrogen and the total RNA was isolated from the crushed tissues by using TRIZOL (Invitrogen, USA). The total RNA isolated as described above was determined and cDNA was synthesized by using reverse transcriptase at 42° C. for 20 minutes. The cDNA was subjected to RT-PCR by repeating the cycle of 95° C./1 minute, 56° C./30 seconds and 72° C./2 minutes thirty times with the following primers and Taq polymerase: primers for CD36 amplification (SEQ ID NO: 5 and SEQ ID NO: 6), primers for LPL amplification (SEQ ID NO: 13 and SEQ ID NO: 14), primers for ACS amplification (SEQ ID NO: 17 (AGCAGAGCTTCGCACGGC) and SEQ ID NO: 18 ([…]) and primers for GyK amplification (SEQ ID NO: 19 ([…]) and SEQ ID NO: 20 ([…])). Expression of the genes was determined by real-time PCR.

Assay [3] deals with obesity/diabetes mice (db/db mice). The assay can be described thus: Anti-diabetes effect in obesity/diabetes mouse model. The format is in vivo. Conditions: for OGTT blood sugar: 12th day; for blood sugar level: 14 days; for blood sugar level / Adiponectin concentration in blood / Insulin concentration in blood: db/db mice; for Adiponectin concentration in blood / Insulin concentration in blood: 14th day. An excerpt:
A mouse (db/db mouse; The Jackson Laboratory, USA) used in the present invention as an obesity/diabetes model is deficient in leptin genes and cannot control its appetite, and thus takes an excessive amount of food continuously. […] Thus, it can be a typical model of obesity and metabolic diseases. Additionally, it has a higher blood sugar level and can be a typical model of non-insulin-dependent diabetes mellitus. To investigate the effect of preventing and treating diabetes of macelignan, seven mice of 10 week-aged obesity/diabetes mice (db/db mice) were used per test group. To the test groups, macelignan suspended in 0.25% carboxymethyl cellulose was orally administered with the dose of 5 mg/kg (body weight), 10 mg/kg (body weight) and 25 mg/kg (body weight), once per day at a predetermined time, for 14 days. As a control, 0.25% carboxymethyl cellulose was orally administered alone to normal mice in the same dose as administered to the test group. As another control, 0.25% carboxymethyl cellulose was orally administered alone to obesity/diabetes mice in the same dose as administered to the test group. As still another control, 10 mg/kg (body weight) of troglitazone was orally administered. Blood sugar levels of the obesity/diabetes mice were determined from six days before the administration, once per three days. On the 12th day after the oral administration, the test group and the controls were subjected to the Oral Glucose Tolerance Test (OGTT). For this test, obesity/diabetes mice in the test group and the controls were fasted for at least 18 hours, glucose was orally administered to the mice in a dose of 3 g/kg (body weight), and then variations in the blood sugar were measured at 0 minutes, 30 minutes, 60 minutes and 120 minutes after the glucose administration. Additionally, on the 14th day of the oral administration, the final blood sugar level, insulin content in blood (mouse insulin ELISA Kit, Linco Research, o. EZRMI-BK, USA) and adiponectin content in blood (Adiponectin Quantikine ELISA Kit, R&D systems, No. MRP300, USA) were analyzed.

With `COc1cc(C[C@H](C)[C@H](C)Cc2ccc3c(c2)OCO3)ccc1O` (single isomer, unassigned) [macelignan], the “luciferase activity higher than the control (PPARγ)” value in assay [1] (25 μM, control 0.01% DMSO) is recorded as “about 10.4 times”. The PPARγ activity result in assay [1] (1, 5, 10 and 25 μM, p<0.01 vs control) is recorded as “increased PPARγ activity in a concentration-dependent manner”. In addition, the “mRNA expression of CD36, LPL, ACS and GyK in liver tissue” value in assay [2] is given as “significantly increased”. Moreover, the OGTT blood sugar is 379.14 ± 26.23 mg/dL in assay [3] (0 min. after glucose 3 g/kg, 5 mg/kg oral); 313.86 ± 51.40 mg/dL in assay [3] (0 min. after glucose 3 g/kg, 10 mg/kg oral); 319.14 ± 35.25 mg/dL in assay [3] (0 min. after glucose 3 g/kg, 25 mg/kg oral); 636.85 ± 63.29 mg/dL in assay [3] (30 mins. after glucose 3 g/kg, 5 mg/kg oral); 670.14 ± 94.20 mg/dL in assay [3] (30 mins. after glucose 3 g/kg, 10 mg/kg oral); 580.00 ± 101.37 mg/dL in assay [3] (30 mins. after glucose 3 g/kg, 25 mg/kg oral). Moreover, the OGTT blood sugar in assay [3] (60 mins. after glucose 3 g/kg, 5 mg/kg oral) stood at 613.38 ± 24.36 mg/dL; in assay [3] (60 mins. after glucose 3 g/kg, 10 mg/kg oral), 593.11 ± 27.15 mg/dL; in assay [3] (60 mins. after glucose 3 g/kg, 25 mg/kg oral), 509.70 ± 27.71 mg/dL; in assay [3] (120 mins. after glucose 3 g/kg, 5 mg/kg oral), 564.21 ± 29.86 mg/dL; in assay [3] (120 mins. after glucose 3 g/kg, 10 mg/kg oral), 529.46 ± 17.55 mg/dL; in assay [3] (120 mins. after glucose 3 g/kg, 25 mg/kg oral), 431.21 ± 59.18 mg/dL. In addition, the blood sugar level is 552.84 ± 47.95 mg/dL in assay [3] (5 mg/kg oral once per day), 501.03 ± 43.67 mg/dL in assay [3] (10 mg/kg oral once per day) and 412.74 ± 31.15 mg/dL in assay [3] (25 mg/kg oral once per day). In addition, the “Adiponectin concentration in blood” value in assay [3] (5 mg/kg oral) stood at 5111.14 ± 925.88 ng/mL; in assay [3] (10 mg/kg oral), 6882.86 ± 250.05 ng/mL; in assay [3] (25 mg/kg oral) it was 7864.00 ± 808.21 ng/mL. Moreover, the “Insulin concentration in blood” value in assay [3] (5 mg/kg oral) worked out at 26.33 ± 10.78 ng/mL; in assay [3] (10 mg/kg oral), 16.66 ± 7.03 ng/mL; in assay [3] (25 mg/kg oral), 8.51 ± 3.67 ng/mL.
